Data set [1] relates to Jc1-luc virus. As to the kind of experiment: Luciferase compound activity assay, Jc1-luc virus in Huh7.5.1 cells. It counts as cell-based, HCV genotype-2a. As to the method: Cell culture. Human hepatoma Huh-7.5.1 cells or Huh7 cells were grown at 37° C. and 5% CO2 in Dulbecco's modification of Eagle's medium supplemented with 2 mM L-glutamine, 1 mM Sodium pyruvate, 1× Non-essential amino acids mix, 100 units/ml penicillin, 100 μg/ml streptomycin, and 10% fetal bovine serum.
Virus plasmids. The chimeric full-length construct pFL-JC1, a GT2a/2a chimera consisting of structural genes from the J6CF isolate and non-structural genes from the JFH1 isolate, has been described previously. See Backes et al., J. Virol. 2010, 84:5775-89; Schaller et al., J. Virol., 2007, 81:4591-603; Koutsoudakis et al., J. Virol. 2006, 80:5308-20; Pietschmann et al., Proc. Natl. Acad. Sci., 2006, 103:7408-13. The firefly luciferase gene has been inserted to pFL-Jc1 to develop a plamid pFL-Jc1-luc for use as a reporter of viral replication. See Amako et al., J. Virol. 2009, 83:9237-46. Specifically, the pFL-JC1-luc construct can be utilized to develop an infectious HCV cell culture system to test novel HCV inhibitors, including entry inhibitors, in vitro using luciferase expression.
Preparation of infectious HCV. Jc1-luc or HCV2a/2aChRluc RNA was in vitro transcribed using T7 RiboMAX™ Express Large Scale RNA Production System (Promega). After RNA clean up (Qiagen RNeasy Mini kit), transfection was performed as previously described.
400 microliters of a Huh-7.5.1 or Huh7 cell suspension (10^7 cells/ml) was placed in a 0.4-cm cuvette with 10 μg of Jc1-luc or HCV2a/2aChRluc RNA and electroporated (Bio-Rad Gene Pulser System) using a single square wave at 260 V and 25 ms pulse length. The cells were plated in 15-cm tissue culture dishes (Corning) and supernatant was harvested and concentrated using a centrifugal filter (Amicon 100K, Millipore).
Luciferase compound activity assay. Cell culture and luciferase compound assays were performed as previously described. See Wyles et al., J. Virol. 2007, 81:3005-8; Wyles et al., Antimicrob Agents Chemother. 2009, 53:2660-2; Grünberger et al., J. Infect. Dis. 2008, 197:42-5; Wyles et al., Antimicrob Agents Chemother, 2008, 52:1862-4. Briefly, Huh7.5.1 cells were seeded into 96-well plates at a density of 10,000 cells per well in 100 μl medium. After incubating overnight for attachment, Jc1-luc virus at an MOI 0.01 was added to wells with or without compounds at the specified concentrations. All conditions were run in triplicate. After 24 hours, medium was aspirated and replaced with 100 μl of complete medium containing an identical concentration of compound(s) followed by additional 48 hour incubation. The luciferase assay (Bright-Glo; Promega) was carried out according to the manufacturer's instructions. Luciferase activity was determined using a microplate luminometer (Veritas microplate luminometer; Turner Biosystems). […]

Data set [2] can be described thus: Cytotoxicity of anti-HCV compounds (CC50, Table 4). The settings on record: human, Huh7.5.1 cells.
Data set [3] deals with HCV2aChLuc (NS3:A156S). As to the kind of experiment: Infectivity of protease mutant virus versus wild type in the presence of compounds. Type of data set: cell-based, HCV genotype 2a. The settings on record: HCV2aChLuc (NS3:A156S) vs wild type HCV2aChLuc. An excerpt: Therefore, we introduced A156S mutation in the backbone of HCV2aChLuc genome and investigated the infectivity of the mutant virus in the presence of compounds.

Data set [4] has as its system HCV1a chimeric virus and 2a chimeric virus. Briefly: Combination of viral entry inhibitor with ribavirin. It counts as cell-based, HCV. The settings on record: ribavirin 15 μM. As to the method:
Varying amounts of each compound were coincubated with a high concentration of ribavirin (15 μM).

For data set [5], the system named is HCV. Briefly: Combination of viral entry inhibitor with IFN-α, HCVcc infection system, luciferase assay. Type of data set: cell-based. As to conditions: Huh7 cells, 72 hrs. How it is done:
The current standard of care for the treatment of chronic hepatitis C is the combination of pegylated IFN-α (interferon-alpha) and ribavirin. […] Huh7 cells were incubated with various concentrations of Compound 1 or interferon alone, or combinations of both for 72 hrs, and the anti-HCV activity was measured by luciferase assays. The same was experiment was performed for Compound 5.

For data set [6], the system named is Bovine viral diarrhea virus (BVDV). Briefly: BVDV plaque-forming assay in MDBK cells. Type of data set: cell-based. As to conditions: even at 1 μM. As to the method: Bovine viral diarrhea virus (BVDV) is a closely related virus to HCV, belonging to the same Family, Flaviviridae. To validate the specificity of antiviral activity, BVDV infection was done with MDBK cells in the presence of compounds provided herein. MDBK cells (70 to 80% confluent) were infected with a diluted virus. Following 1 h of adsorption at 37° C., cells were washed once with DMEM, overlaid with 1.5% low-melting-point (LMP) agarose (Gibco-BRL) in MEM containing 5% HS, and incubated at 37° C. To assay for plaque-forming virus, after 3 days monolayers were fixed with 3.7% formaldehyde for 2 h at room temperature, the agarose plugs were removed, and the monolayers were stained with crystal violet.

Data set [7] deals with HCV genotype 1b subgenomic replicon. Briefly: HCV replicon assay (HCV1b replicon cells, NS5A ELISA). It counts as cell-based. As to conditions: 3 days. How it is done:
Alternatively, Hut1b cells (Huh7 cells stably replicating HCV genotype 1b subgenomic replicon) were treated with serial dilutions of the test compound for 72 hours. Replication efficiency was monitored by ELISA assay using anti-HCV NS5A monoclonal antibody (Virogen).
Increasing amounts of compound were inoculated onto HCV1b replicon cells and incubated for 3 days. Following incubation, HCV replication was monitored with NS5A protein expression by ELISA.
Background: A replicon is a self-replicating genome or part of one, used to study replication in cells.

Data set [8] relates to HCV1a/2a chimeric virus. Briefly: HCV entry assay with HCV1a/2a chimeric virus. The settings on record: compared with HCV2a chimeric virus. Type of data set: cell-based, HCV genotype 1a. The source says: Since HCV genotype 1 is the most prevalent genotype among the variants of HCV, we constructed an HCV1a/2a chimeric infectious clone with two cell-culture adaptive mutations introduced. Sequences for the structural proteins (including C, E1, and E2), p7, and NS2 were derived from HCV genotype 1a H77 strain. The rest of nonstructural proteins (NS3 to NS5B) and 3′ NTR were derived from HCV genotype 2a JFH strain. 5′NTR was originated from HCV2aJ6 (FIG. 7). […] Therefore, both HCV1a/2aCh virus and HCV1a/2aChLuc virus with Y361H and Q1251L mutations were successively produced in Huh7 cells and used for HCV entry assay.

The subject of data set [9] is HCV. As to the kind of experiment: Combination of viral entry inhibitor with HCV protease inhibitor VX-950. As to conditions: fixed ratio based on EC50. Type of data set: cell-based.
Procedure: Additional combination studies of Compound 1 and Compound 5 with the HCV NS3 protease inhibitor VX-950 were conducted. Compound 1 and Compound 5 were tested singly and in combination with VX-950. The ratio of the two compounds, based on the compound's EC50, remained fixed across the dosing range. The potential cytotoxicity of individual compounds was assessed with a luminescent ATP-based cell viability assay (Cell Titer-Glo; Promega). Cell culture and luciferase compound assays were performed as previously described in Example 3.
Compound interactions were quantified by the approach described by Chou and Talalay, relying on the median effect principle and the multiple-drug effect equation. […] Isobolograms were generated for each combination tested and were used to determine the additivity, synergism or antagonism of inhibitor combinations. Combination indices (CI) were determined with Calcusyn (Biosoft) for each experiment at the EC50, EC75, and EC90 of the combination. By convention, a CI of <0.9 was considered synergistic, a CI of ≧0.9 or ≦1.1 was considered additive, and a CI of >1.1 was deemed antagonistic. […] Combination indices (CI) were determined with Calcusyn (Biosoft) for each experiment at the EC50, EC75, and EC90 of the combination. By convention, a CI of <0.9 was considered synergistic, a CI of ≧0.9 or ≦1.1 was considered additive, and a CI of >1.1 was deemed antagonistic.
The test system of data set [10] is HCV2aCh (E2:G451R) mutant virus. As to the kind of experiment: E2:G451R mutant virus infectivity, luciferase assay. Type of data set: cell-based, HCV genotype 2a. The settings on record: E2:G451R vs parental. The source says: Since SR-B1 is also known to be one of the essential cellular receptors required for HCV entry, we were interested to know if Compounds 1 and 5 inhibits HCV entry via SR-B1. HCV E2 protein interaction with SR-B1 is believed to occur via hypervariable region 1 located within the N-terminal region of the E2 glycoprotein. Zhong and colleagues reported that a glycine-to-arginine mutation at position 451 (G451R) in E2 promoted JFH-1 infectivity (J. Viol. 2006, 80:11082). […] We introduced the E2:G451R mutation into the backbone of HCV2aCh (FIG. 13a) to test whether this mutation may alter the inhibitory effect of Compounds 1 and 5 on HCV entry mediated by SR-B1.

Data set [11] has as its system HCV2aChLuc virus. Briefly: In vitro HCVcc entry assay: HCV2aChLuc virus infection of Huh7 cells, Renilla luciferase read-out. Type of data set: cell-based, HCV genotype 2a. The settings on record: for IC50: Hepatitis C virus.
Data set [12] relates to Huh7.5.1 cells.

The results in this text go back to patent US20110117055A1, “Methods of Treating Hepatitis C Virus with Oxoacetamide Compounds” (priority 2009, published 2011).

“Also recorded” adds a separate entry of the source. Read-outs that look alike come from different tables or passages of the source. Where only a bound is given, the exact number is not on record here.

For the molecule `C[C@@]1(O)[C@H](O)[C@@H](CO)O[C@H]1n1cnc2c(N)ncnc21` [2′-C-methyladenosine, reference compound], the EC50 in data set [1] (Hepatitis C virus, Huh-7.5.1) was determined as 252 ± 33.5 nM. In data set [2], the CC50 was more than 100000 nM.

With `COc1ccc(C(C)(C)C)cc1NC(=O)C(=O)c1ccc(OCCN2CCOCC2)c2ccccc12` [Compound 1, N-(5-tert-butyl-2-methoxyphenyl)-2-(4-(2-morpholinoethoxy)naphthalen-1-yl)-2-oxoacetamide], the “resistance of NS3:A156S mutant virus versus wild type (inhibition of infectivity)” value in data set [3] is recorded as “no significant difference”. Besides, in [4], the “effect of combination with ribavirin” value was “no antagonistic effect”. In addition, the “effect of combination with IFN-α on inhibition of HCV infection in cell culture” value in data set [5] is on record as “additive to moderate synergistic effect”. Also, the “inhibitory effect on BVDV infection” value in data set [6] is listed as “no measurable inhibitory effect”. In [7], the “effect on HCV replication (NS5A protein expression by ELISA)” value is listed as “did not measurably inhibit; also recorded: no measurable effect”. Besides, the “inhibition of HCV1a chimeric virus” value in data set [8] is listed as “inhibited”. Besides, the “effect of combination with VX-950” value in data set [9] is recorded as “additive to slightly synergistic effects”. For the same molecule, the “sensitivity of E2 mutant virus relative to parental virus, luciferase assay for viral infectivity” value in data set [10] was “greater resistance”. The IC50 is 0.2 to 2 nM in [11] (Huh-7, 72 h, read-out: observed IC50, Huh7 cells co-incubated with HCV2aChRluc virus and compound for 3 days, repeated assays (n>30)); less than 5 nM in data set [11] (Huh-7, read-out: Activity class (IC50), tested according to the method of Example 3). Moreover, the “inhibitory effect on HCV2aChLuc viral entry” value in [11] (Huh7 cells, 3 days) is “dose-dependent inhibitory effect; also recorded: dose-dependent inhibition”.

Regarding IFN-α, the “effect on HCV replication (NS5A protein expression by ELISA)” value in data set [7] is given as “dose dependent inhibition”. For the same molecule, the CC50 in data set [12] was more than 100 IU/ml. Moreover, in [1] (Jc1-luc, ± standard error of the mean), the EC50 is reported as 3.01 ± 0.39 IU/ml. Further, the “sensitivity of E2 mutant virus relative to parental virus, luciferase assay for viral infectivity” value in [10] is “very identical patterns”.

Regarding `COc1ccc2c(O[C@@H]3C[C@H]4C(=O)N[C@]5(C(=O)O)C[C@H]5/C=C\CCCCC[C@H](NC(=O)OC5CCCC5)C(=O)N4C3)cc(-c3csc(NC(C)C)n3)nc2c1` [BILN2061, reference compound], the EC50 in [1] (Hepatitis C virus, Huh-7.5.1) was 492 ± 56.7 nM. Moreover, the CC50 in [2] was 35000 nM.

As a reminder, the IC50 is the point on the concentration scale where inhibition reaches its midpoint.
